Assay: Preparation and aging of 3% SnCl2.2H2O solutions with TSPP or TKPP
Assay type: physicochemical
Conditions: room temperature
Method: Solutions are prepared by dissolving TSPP in deionized water (mixing under heat if necessary) and then adding 0.6 g of SnCl2.2H2O to make 20-gram solutions.
A 3% SnCl2.2H2O solution is used as a control.
Solutions are prepared by dissolving TKPP in deionized water (mixing under heat if necessary) and then adding 0.6 g SnCl2.2H2O to make 20-g solutions.

SMILES: O.O.[Cl][Sn][Cl] [3% SnCl2.2H2O solution, SnCl2.2H2O]
- appearance after aging overnight: form a cloudy precipitate that settles

From patent US10292912B2, “Personal care compositions” (Colgate-Palmolive Company, priority 2015, dated 2019)
